We go through 39 molecules from US11597746B2, “Cyclic dinucleotides as sting agonists” (JANSSEN BIOTECH, INC., priority 2018, dated 2023).

Each structure is given as a SMILES string.

The first test deals with human STING pathway in THP1-ISG cells. As to the kind of experiment: STING human cell reporter assay. It counts as cell-based. The settings on record: IRF-inducible SEAP reporter, 24 h. (In general: A reporter such as luciferase makes a cellular process visible.)
Experimental: STING Human Cell Reporter Assay
Agonism of the human STING pathway is assessed in THP1-ISG cells (Invivogen, cat #thp-isg) derived from human THP1 monocyte cell line by stable integration of an interferon regulatory factor (IRF)-inducible SEAP reporter construct. THP1-Blue ISG cells express a secreted embryonic alkaline phosphatase (SEAP) reporter gene under the control of an ISG54 minimal promoter in conjunction with five interferon (IFN)-stimulated response elements. As a result, THP1-Blue ISG cells allow the monitoring of IRF activation by determining the activity of SEAP. The levels of IRF-induced SEAP in the cell culture supernatant are readily assessed with alkaline phosphatase detection medium, a SEAP detection reagent. These cells are resistant to Zeocin. 2′3′cGAMP was used as a positive control in this assay. To run the assay, 60,000 cells were dispensed in 30 μL/well of a white, opaque bottom tissue culture treated 384-well plate.
Test compounds were added in a volume of 10 μL (1% DMSO final concentration). Compounds are initially prepared in 100% DMSO, spotted on an intermediate dilution plate and then diluted in media prior to transfer. The assay was incubated for 24 h at 37° C., 5% CO2 then plates were centrifuged at 1200 rpm (120×g) for 5 min. After final incubation, 90 μL of alkaline phosphatase detection medium-substrate was added to each well of a new 384-well clear plate and 10 μL of the cell supernatant was transferred from the assay plate to the new alkaline phosphatase detection medium-plate using a Biomek FX and mixed 4 times.
For the molecule `Nc1ncnc2c1ncn2[C@@H]1O[C@@H]2CNS(=O)(=O)O[C@H]3[C@@H](F)[C@H](n4cnc5c(N)ncnc54)O[C@@H]3CO[P@](=O)(S)O[C@H]2[C@H]1F` (single isomer, unassigned) [Compound 3], the response was half-maximal at 540 nM (EC50).

For `Nc1nc2c(ncn2[C@@H]2O[C@@H]3CNS(=O)(=O)O[C@H]4[C@H](F)[C@H](n5cnc6c(N)ncnc65)O[C@@H]4CO[P@@](=O)(S)O[C@H]3[C@H]2F)c(=O)[nH]1` (single isomer, unassigned) [Compound 16-R], it took 1830 nM to reach a half-maximal effect (EC50).

For the molecule `Nc1nc2c(ncn2[C@@H]2O[C@@H]3CNS(=O)(=O)O[C@H]4[C@H](F)[C@H](n5cnc6c(N)ncnc65)O[C@@H]4CO[P@](=O)(S)O[C@H]3[C@H]2F)c(=O)[nH]1` (single isomer, unassigned) [Compound 16-S], the 50% effective concentration (EC50) – broadly, the concentration giving half of the maximal effect – worked out at 4.6 nM.

`Nc1nc2c(ncn2[C@@H]2O[C@@H]3CO[P@@](=O)(S)O[C@H]4[C@@H](F)[C@H](n5cnc6c(N)ncnc65)O[C@@H]4CNS(=O)(=O)O[C@H]3[C@H]2F)c(=O)[nH]1` (single isomer, unassigned) [Compound 18-R] showed an EC50 of 93 nM.

Molecule `Nc1nc2c(ncn2[C@@H]2O[C@@H]3CO[P@](=O)(S)O[C@H]4[C@@H](F)[C@H](n5cnc6c(N)ncnc65)O[C@@H]4CNS(=O)(=O)O[C@H]3[C@H]2F)c(=O)[nH]1` (single isomer, unassigned) [Compound 18-S] displayed an EC50 of 21100 nM.

`Nc1ncnc2c1ncn2[C@@H]1O[C@@H]2CO[P@@](=O)(S)O[C@H]3[C@@H](F)[C@H](n4cnc5c(=O)[nH]cnc54)O[C@@H]3COS(=O)(=O)O[C@H]2[C@H]1F` (single isomer, unassigned) [Compound 22-R] gave an EC50 of 29 nM.

In turn, `Nc1ncnc2c1ncn2[C@@H]1O[C@@H]2CO[P@](=O)(S)O[C@H]3[C@@H](F)[C@H](n4cnc5c(=O)[nH]cnc54)O[C@@H]3COS(=O)(=O)O[C@H]2[C@H]1F` (single isomer, unassigned) [Compound 22-S] came in with an EC50 of 97 nM.

On to `Nc1ncnc2c1ncn2[C@@H]1O[C@@H]2CO[P@@](=O)(S)O[C@H]3[C@@H](F)[C@H](n4cnc5c(=O)[nH]cnc54)O[C@@H]3CNS(=O)(=O)O[C@H]2[C@H]1F` (single isomer, unassigned) [Compound 31-R], for which the EC50 was found to be 930 nM.

On to `Nc1ncnc2c1ncn2[C@@H]1O[C@@H]2CO[P@](=O)(S)O[C@H]3[C@@H](F)[C@H](n4cnc5c(=O)[nH]cnc54)O[C@@H]3CNS(=O)(=O)O[C@H]2[C@H]1F` (single isomer, unassigned) [Compound 31-S], for which the response was half-maximal at 970 nM (EC50).

`Nc1nc2c(ncn2[C@@H]2O[C@@H]3CO[P@@](=O)(S)O[C@H]4[C@@H](F)[C@H](n5cnc6c(N)ncnc65)O[C@@H]4CNS(=O)(=O)O[C@H]3[C@@H]2F)c(=O)[nH]1` (single isomer, unassigned) [Compound 34-R] had an EC50 of 23700 nM.

For the molecule `Nc1nc2c(ncn2[C@@H]2O[C@@H]3CO[P@](=O)(S)O[C@H]4[C@@H](F)[C@H](n5cnc6c(N)ncnc65)O[C@@H]4CNS(=O)(=O)O[C@H]3[C@@H]2F)c(=O)[nH]1` (single isomer, unassigned) [Compound 34-S], a half-maximal response (EC50) required 47700 nM.

Consider `Nc1ncnc2c1ncn2[C@@H]1O[C@@H]2CNS(=O)(=O)O[C@H]3[C@@H](F)[C@H](n4cnc5c(N)ncnc54)O[C@@H]3COP(=O)(O)O[C@H]2[C@H]1F` [Compound 1], for which the concentration for a half-maximal effect (EC50) was found to be 160 nM.

In turn, `Nc1ncnc2c1ncn2[C@@H]1O[C@@H]2CNS(=O)(=O)O[C@H]3[C@@H](F)[C@H](n4cnc5c(N)ncnc54)O[C@@H]3CO[P@@](=O)(S)O[C@H]2[C@H]1F` [Compound 2] came in with an EC50 of 12 nM.

`CO[C@@H]1[C@@H]2OS(=O)(=O)NC[C@H]3O[C@@H](n4cnc5c(N)ncnc54)[C@H](F)[C@@H]3OP(=O)(O)OC[C@H]2O[C@H]1n1cnc2c(=O)[nH]c(N)nc21` [Compound 4]: the midpoint of the response, the EC50, lay at 64100 nM.

The molecule `Nc1ncnc2c1ncn2[C@@H]1O[C@@H]2COP(=O)(O)O[C@H]3C[C@H](n4cnc5c(N)ncnc54)O[C@@H]3CNS(=O)(=O)O[C@H]2[C@H]1F` [Compound 6] yielded an EC50 of 2940 nM.

As for `Nc1nc2c(ncn2[C@@H]2O[C@@H]3COP(=O)(O)O[C@H]4[C@@H](O)[C@H](n5cnc6c(N)ncnc65)O[C@@H]4CNS(=O)(=O)O[C@H]3[C@H]2F)c(=O)[nH]1` [Compound 9], the EC50 came out at 6240 nM.

The molecule `Nc1nc2c(ncn2[C@@H]2O[C@@H]3CNS(=O)(=O)O[C@H]4[C@H](F)[C@H](n5cnc6c(N)ncnc65)O[C@@H]4COP(=O)(O)O[C@H]3[C@H]2F)c(=O)[nH]1` [Compound 13] registered an EC50 of 20 nM.

Turning to `Nc1nc2c(ncn2[C@@H]2O[C@@H]3CO[P@@](=O)(S)O[C@H]4[C@@H](O)[C@H](n5cnc6c(N)ncnc65)O[C@@H]4CNS(=O)(=O)O[C@H]3[C@H]2F)c(=O)[nH]1` [Compound 14-R], the EC50 was found to be 1830 nM.

Molecule `Nc1nc2c(ncn2[C@@H]2O[C@@H]3CO[P@](=O)(S)O[C@H]4[C@@H](O)[C@H](n5cnc6c(N)ncnc65)O[C@@H]4CNS(=O)(=O)O[C@H]3[C@H]2F)c(=O)[nH]1` [Compound 14-S] gave an EC50 of more than 100000 nM.

`COc1ccc(CO[C@@H]2[C@@H]3OS(=O)(=O)NC[C@H]4O[C@@H](n5cnc6c(N)ncnc65)[C@H](F)[C@@H]4OP(=O)(O)OC[C@H]3O[C@H]2n2cnc3c(N)ncnc32)cc1` [Compound 15-R] came in with an EC50 of more than 100000 nM.

With `Nc1ncnc2c1ncn2[C@@H]1O[C@@H]2CNS(=O)(=O)O[C@H]3[C@@H](F)[C@H](n4cnc5c(=O)[nH]cnc54)O[C@@H]3CO[P@@](=O)(S)O[C@H]2[C@H]1F` [Compound 17-R], the EC50 was determined as 980 nM.

With `Nc1ncnc2c1ncn2[C@@H]1O[C@@H]2CNS(=O)(=O)O[C@H]3[C@@H](F)[C@H](n4cnc5c(=O)[nH]cnc54)O[C@@H]3CO[P@](=O)(S)O[C@H]2[C@H]1F` [Compound 17-S], a half-maximal response (EC50) required 4230 nM.

As to `Nc1ncnc2c1ncn2[C@@H]1O[C@@H]2CNS(=O)(=O)O[C@H]3[C@@H](F)[C@H](n4cnc5c(N)ncnc54)O[C@@H]3CO[P@@](=O)(S)O[C@H]2[C@H]1F` [Compound 20-R], the EC50 is 350 nM.

The molecule `Nc1ncnc2c1ncn2[C@@H]1O[C@@H]2CNS(=O)(=O)O[C@H]3[C@@H](F)[C@H](n4cnc5c(N)ncnc54)O[C@@H]3CO[P@](=O)(S)O[C@H]2[C@H]1F` [Compound 20-S] gave an EC50 of 61800 nM.

`Nc1ncnc2c1ncn2[C@@H]1O[C@@H]2COP(=O)(O)O[C@H]3[C@@H](F)[C@H](n4cnc5c(=O)[nH]cnc54)O[C@@H]3CNS(=O)(=O)O[C@H]2[C@H]1F` [Compound 24]: the EC50 worked out at 70 nM.

Consider `Nc1nc2c(ncn2[C@@H]2O[C@@H]3COP(=O)(O)O[C@H]4[C@@H](F)[C@H](n5cnc6c(N)ncnc65)O[C@@H]4CNS(=O)(=O)O[C@H]3[C@@H]2F)c(=O)[nH]1` [Compound 26], for which the EC50 is 30 nM.

`Nc1ncnc2c1ncn2[C@H]1C[C@@H]2NS(=O)(=O)OC[C@H]3O[C@@H](n4cnc5c(=O)[nH]cnc54)[C@H](F)[C@@H]3OP(=O)(O)OC[C@H]2O1` [Compound 28] registered an EC50 of 730 nM.

The molecule `Nc1ncnc2c1ncn2[C@@H]1O[C@@H]2CNS(=O)(=O)O[C@H]3C[C@H](n4cc(F)c5c(N)ncnc54)O[C@@H]3COP(=O)(O)O[C@H]2[C@H]1F` [Compound 29] registered an EC50 of more than 100000 nM.

As to `Nc1ncnc2c1ncn2[C@@H]1O[C@@H]2CNS(=O)(=O)O[C@H]3C[C@H](n4cnc5cc(Cl)c(Cl)cc54)O[C@@H]3COP(=O)(O)O[C@H]2[C@H]1F` [Compound 32], a half-maximal effect (EC50) was put at 180 nM.

`Nc1ncnc2c1ncn2[C@@H]1O[C@@H]2CNS(=O)(=O)O[C@H]3C[C@H](n4cnc5cncnc54)O[C@@H]3COP(=O)(O)O[C@H]2[C@H]1F` [Compound 33]: the EC50 was 730 nM.

`Nc1ncnc2c1ncn2[C@@H]1O[C@@H]2CNS(=O)(=O)O[C@H]3[C@H]4OO[C@]3(CO[P@@](=O)(S)O[C@H]2[C@H]1F)O[C@H]4n1cnc2c(N)ncnc21` [Compound 37-R] came in with an EC50 of 880 nM.

With `Nc1ncnc2c1ncn2[C@@H]1O[C@@H]2CNS(=O)(=O)O[C@H]3[C@H]4OO[C@]3(CO[P@](=O)(S)O[C@H]2[C@H]1F)O[C@H]4n1cnc2c(N)ncnc21` [Compound 37-S], the EC50 is 640 nM.

Regarding `Nc1ncnc2c1ncn2[C@@H]1O[C@@H]2CNS(=O)(=O)O[C@H]3C[C@H](n4ncc5c(=O)[nH]cnc54)O[C@@H]3COP(=O)(O)O[C@H]2[C@H]1F` [Compound 39], the EC50 is more than 100000 nM.

Turning to `Nc1ncnc2c1ncn2[C@@H]1O[C@@H]2CNS(=O)(=O)O[C@H]3C[C@H](n4nnc5c(=O)[nH]cnc54)O[C@@H]3COP(=O)(O)O[C@H]2[C@H]1F` [Compound 42], a half-maximal response (EC50) required 100000 nM.

In turn, `Nc1ncnc2c1ncn2[C@@H]1O[C@@H]2CNS(=O)(=O)O[C@H]3C[C@H](n4cnc5c(=O)[nH]ncc54)O[C@@H]3COP(=O)(O)O[C@H]2[C@H]1F` [Compound 43] had an EC50 of 730 nM.

`Nc1nc(N)c2ncn([C@@H]3O[C@@H]4COP(=O)(O)O[C@H]5[C@@H](F)[C@H](n6cnc7c(N)ncnc76)O[C@@H]5CNS(=O)(=O)O[C@H]4[C@H]3F)c2n1` [Compound 44]: the EC50 was found to be 2650 nM.

For `Nc1nc2c(ncn2[C@@H]2O[C@@H]3COP(=O)(O)O[C@H]4[C@@H](F)[C@H](n5cnc6c(N)ncnc65)O[C@@H]4CNS(=O)(=O)O[C@H]3[C@H]2OCc2ccccc2)c(=O)[nH]1` [Compound 46], the EC50 is more than 100000 nM.

The molecule `Nc1ncnc2c1ncn2[C@@H]1O[C@@H]2CNS(=O)(=O)O[C@H]3[C@@H](F)[C@H](n4cnc5c(N)ncnc54)O[C@@H]3CNS(=O)(=O)O[C@H]2[C@H]1F` [Compound 47] gave an EC50 of 290 nM.

The next test deals with human STING (Homo sapiens (Human), UniProt Q86WV6, H232R). As to the kind of experiment: STING SPA binding assay. The settings on record: displacement of [3H]-2′3′-cGAMP from biotinylated recombinant STING (residues 139-379, H232R); read-out: hSTING SPA IC50. On the technique in general: Loss of bound radioactivity is the signal in a displacement assay; it reports binding, not function.
Sequence of human STING (Q86WV6 139-379 H232R): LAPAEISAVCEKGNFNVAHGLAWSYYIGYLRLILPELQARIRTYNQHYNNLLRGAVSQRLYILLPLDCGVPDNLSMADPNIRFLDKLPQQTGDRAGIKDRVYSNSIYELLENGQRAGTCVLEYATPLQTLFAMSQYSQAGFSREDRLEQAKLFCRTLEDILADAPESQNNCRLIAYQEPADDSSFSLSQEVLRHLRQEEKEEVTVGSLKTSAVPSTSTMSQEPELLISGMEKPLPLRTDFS
On to `COc1ccc(CO[C@@H]2[C@@H]3OS(=O)(=O)NC[C@H]4O[C@@H](n5cnc6c(N)ncnc65)[C@H](F)[C@@H]4OP(=O)(O)OC[C@H]3O[C@H]2n2cnc3c(N)ncnc32)cc1` [Compound 15-R], for which the IC50 – broadly, the concentration that gives 50% inhibition – was more than 100000 nM.

For `Nc1nc2c(ncn2[C@@H]2O[C@@H]3COP(=O)(O)O[C@H]4[C@@H](F)[C@H](n5cnc6c(N)ncnc65)O[C@@H]4CNS(=O)(=O)O[C@H]3[C@H]2OCc2ccccc2)c(=O)[nH]1` [Compound 46], the IC50 was more than 100000 nM.

Still in this test, the particulars now being: natural ligand.
Regarding `Nc1nc2c(ncn2[C@@H]2O[C@@H]3COP(=O)(O)O[C@H]4[C@@H](O)[C@H](n5cnc6c(=O)[nH]c(N)nc65)O[C@@H]4COP(=O)(O)O[C@H]3[C@H]2O)c(=O)[nH]1` [cyclic-di-GMP, reference compound], the “values in STING SPA binding assay” value is “within the expected range”.
